Experimental data taken from ChEMBL document CHEMBL1135428, “A new type of prodrug of catecholamines: an opportunity to improve the treatment of Parkinson's disease” (2002).
Activity calls are given as the source filed them. No cut-off for these calls is given here.

Columns and labels:
Rattus norvegicus [1] = experiment: Subcutaneously administered dose (in vivo) in male Wistar rats in a striatal microdialysis analysis and its metabolite, 5,6-di-OH-DPAT was found to be present; format: functional
Rattus norvegicus [2] = experiment: Dopamine (DA) agonistic activity (% decrease in endogenous dopamine level) after peroral administration at a dose of 1.2 uM/kg; Inactive; format: functional, organism-based
Rattus norvegicus [3] = experiment: Dopamine (DA) agonistic activity (% decrease in endogenous dopamine level) after peroral administration at a dose of 0.4 uM/Kg; format: functional
Rattus norvegicus [4] = experiment: Dopamine (DA) agonistic activity (% decrease in endogenous dopamine level) after peroral administration at a dose of 1.2 uMl/Kg; format: functional

Row | Compound | Dose (Rattus norvegicus [1]) | Decrease (Rattus norvegicus [2]) | Decrease (Rattus norvegicus [3]) | Decrease (Rattus norvegicus [4])
1 | CCCN(CCC)[C@@H]1CCC2=C(CCCC2=O)C1 | 350 µM/kg | inactive | – | –
2 | CCCN(CCC)[C@H]1CCC2=C(CCCC2=O)C1 | 35 µM/kg | – | 50% | 70%
